# Measurements as given in PubChem BioAssay (NCI).
#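 Where inhibition never reached the appropriate level, the endpoint shown equals the highest concentration tested. Otherwise, values were interpolated linearly from a five-concentration, 48-hour dose response in 96-well plates. Abbreviation: GI50, concentration required for 50% inhibition of growth. TGI marks complete inhibition of growth.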
# Assays:
# Experiment in all cases: NCI-60 cell line screen, 48 h
# EKVX NSCLC = tested on: EKVX NSCLC
# HT29 colon = tested on: HT29 colon
# SR leukemia = tested on: SR leukemia
# SK-MEL-28 melanoma = tested on: SK-MEL-28 melanoma
# MALME-3M melanoma = tested on: MALME-3M melanoma
# NCI-H23 lung = tested on: NCI-H23 lung
# NCI-H226 lung = tested on: NCI-H226 lung
# A498 renal = tested on: A498 renal
# M14 melanoma = tested on: M14 melanoma
# U251 CNS = tested on: U251 CNS
# CCRF-CEM leukemia = tested on: CCRF-CEM leukemia
# KM12 colon = tested on: KM12 colon
# MCF7 breast = tested on: MCF7 breast
# SF-268 CNS = tested on: SF-268 CNS
# OVCAR-5 ovarian = tested on: OVCAR-5 ovarian
# DU-145 prostate = tested on: DU-145 prostate
# MOLT-4 leukemia = tested on: MOLT-4 leukemia
# NCI-H460 lung = tested on: NCI-H460 lung
# LOX IMVI melanoma = tested on: LOX IMVI melanoma
# OVCAR-8 ovarian = tested on: OVCAR-8 ovarian
# 786-0 renal = tested on: 786-0 renal
# HOP-92 NSCLC = tested on: HOP-92 NSCLC
# HOP-62 NSCLC = tested on: HOP-62 NSCLC
# OVCAR-3 ovarian = tested on: OVCAR-3 ovarian
# RPMI-8226 leukemia = tested on: RPMI-8226 leukemia
# K-562 leukemia = tested on: K-562 leukemia
# NCI/ADR-RES ovarian = tested on: NCI/ADR-RES ovarian
# HL-60(TB) leukemia = tested on: HL-60(TB) leukemia
# BT-549 breast = tested on: BT-549 breast
# SK-OV-3 ovarian = tested on: SK-OV-3 ovarian
# SK-MEL-2 melanoma = tested on: SK-MEL-2 melanoma
# SK-MEL-5 melanoma = tested on: SK-MEL-5 melanoma
# HCC-2998 colon = tested on: HCC-2998 colon
# SF-295 CNS = tested on: SF-295 CNS
# MDA-MB-435 = tested on: MDA-MB-435
# COLO 205 colon = tested on: COLO 205 colon
# A549 NSCLC = tested on: A549 NSCLC
# SW-620 colon = tested on: SW-620 colon
# NCI-H522 lung = tested on: NCI-H522 lung
# SF-539 CNS = tested on: SF-539 CNS
# HS 578T breast = tested on: HS 578T breast
# UACC-257 melanoma = tested on: UACC-257 melanoma
# HCT-15 colon = tested on: HCT-15 colon
# IGROV1 ovarian = tested on: IGROV1 ovarian
# UO-31 renal = tested on: UO-31 renal
# SNB-19 CNS = tested on: SNB-19 CNS
# SN12C renal = tested on: SN12C renal
# HCT-116 colon = tested on: HCT-116 colon
# CAKI-1 renal = tested on: CAKI-1 renal
# TK-10 renal = tested on: TK-10 renal
# UACC-62 melanoma = tested on: UACC-62 melanoma
# T-47D breast = tested on: T-47D breast
# MDA-MB-231 breast = tested on: MDA-MB-231 breast
# ACHN renal = tested on: ACHN renal
# PC-3 prostate = tested on: PC-3 prostate
# RXF 393 renal = tested on: RXF 393 renal
# SNB-75 CNS = tested on: SNB-75 CNS
compound,measurement,setting,value
Cn1cc(-c2nc3c(F)cc4[nH]ncc4c3c3c2CCCC3)c(C(F)(F)F)n1,GI50,EKVX NSCLC,9.47 µM
same,TGI,EKVX NSCLC,36.6 µM
same,GI50,HT29 colon,9.05 µM
same,TGI,HT29 colon,> 100 µM
same,GI50,SR leukemia,5.25 µM
same,TGI,SR leukemia,> 100 µM
same,GI50,SK-MEL-28 melanoma,12.8 µM
same,TGI,SK-MEL-28 melanoma,74.8 µM
same,GI50,MALME-3M melanoma,8.87 µM
same,TGI,MALME-3M melanoma,34.2 µM
same,GI50,NCI-H23 lung,8.73 µM
same,TGI,NCI-H23 lung,> 100 µM
same,GI50,NCI-H226 lung,22.7 µM
same,TGI,NCI-H226 lung,67.2 µM
same,GI50,A498 renal,1.7 µM
same,TGI,A498 renal,4.88 µM
same,GI50,M14 melanoma,8.54 µM
same,TGI,M14 melanoma,44.2 µM
same,GI50,U251 CNS,18.2 µM
same,TGI,U251 CNS,56.9 µM
same,GI50,CCRF-CEM leukemia,4.66 µM
same,TGI,CCRF-CEM leukemia,> 100 µM
same,GI50,KM12 colon,2.85 µM
same,TGI,KM12 colon,> 100 µM
same,GI50,MCF7 breast,5.38 µM
same,TGI,MCF7 breast,45.4 µM
same,GI50,SF-268 CNS,12 µM
same,TGI,SF-268 CNS,55.3 µM
same,GI50,OVCAR-5 ovarian,19.2 µM
same,TGI,OVCAR-5 ovarian,86.6 µM
same,GI50,DU-145 prostate,10.9 µM
same,TGI,DU-145 prostate,77.7 µM
same,GI50,MOLT-4 leukemia,4.2 µM
same,TGI,MOLT-4 leukemia,40.4 µM
same,GI50,NCI-H460 lung,10.4 µM
same,TGI,NCI-H460 lung,33.9 µM
same,GI50,LOX IMVI melanoma,7.8 µM
same,TGI,LOX IMVI melanoma,25 µM
same,GI50,OVCAR-8 ovarian,15.3 µM
same,TGI,OVCAR-8 ovarian,> 100 µM
same,GI50,786-0 renal,10.7 µM
same,TGI,786-0 renal,27.7 µM
same,GI50,HOP-92 NSCLC,19.6 µM
same,TGI,HOP-92 NSCLC,> 100 µM
same,GI50,HOP-62 NSCLC,6.22 µM
same,TGI,HOP-62 NSCLC,44 µM
same,GI50,OVCAR-3 ovarian,23.2 µM
same,TGI,OVCAR-3 ovarian,75.8 µM
same,GI50,RPMI-8226 leukemia,11.5 µM
same,TGI,RPMI-8226 leukemia,> 100 µM
same,GI50,K-562 leukemia,8.25 µM
same,TGI,K-562 leukemia,> 100 µM
same,GI50,NCI/ADR-RES ovarian,15.8 µM
same,TGI,NCI/ADR-RES ovarian,> 100 µM
same,GI50,HL-60(TB) leukemia,5.5 µM
same,TGI,HL-60(TB) leukemia,28.2 µM
same,GI50,BT-549 breast,2.62 µM
same,TGI,BT-549 breast,15.4 µM
same,GI50,SK-OV-3 ovarian,6.85 µM
same,TGI,SK-OV-3 ovarian,38.5 µM
same,GI50,SK-MEL-2 melanoma,13 µM
same,TGI,SK-MEL-2 melanoma,30.5 µM
same,GI50,SK-MEL-5 melanoma,9.12 µM
same,TGI,SK-MEL-5 melanoma,22.9 µM
same,GI50,HCC-2998 colon,16.4 µM
same,TGI,HCC-2998 colon,49.3 µM
same,GI50,SF-295 CNS,9.57 µM
same,TGI,SF-295 CNS,69.8 µM
same,GI50,MDA-MB-435,5.36 µM
same,TGI,MDA-MB-435,> 100 µM
same,GI50,COLO 205 colon,19.6 µM
same,TGI,COLO 205 colon,57.1 µM
same,GI50,A549 NSCLC,5.7 µM
same,TGI,A549 NSCLC,59.4 µM
same,GI50,SW-620 colon,11.3 µM
same,TGI,SW-620 colon,48.7 µM
same,GI50,NCI-H522 lung,3.45 µM
same,TGI,NCI-H522 lung,19.6 µM
same,GI50,SF-539 CNS,7.55 µM
same,TGI,SF-539 CNS,22.8 µM
same,GI50,HS 578T breast,4.59 µM
same,TGI,HS 578T breast,27.2 µM
same,GI50,UACC-257 melanoma,25.9 µM
same,TGI,UACC-257 melanoma,> 100 µM
same,GI50,HCT-15 colon,14.2 µM
same,TGI,HCT-15 colon,> 100 µM
same,GI50,IGROV1 ovarian,4.15 µM
same,TGI,IGROV1 ovarian,28.7 µM
same,GI50,UO-31 renal,4.26 µM
same,TGI,UO-31 renal,19.5 µM
same,GI50,SNB-19 CNS,26.8 µM
same,TGI,SNB-19 CNS,> 100 µM
same,GI50,SN12C renal,8.25 µM
same,TGI,SN12C renal,81.8 µM
same,GI50,HCT-116 colon,4.3 µM
same,TGI,HCT-116 colon,22.1 µM
same,GI50,CAKI-1 renal,3.33 µM
same,TGI,CAKI-1 renal,> 100 µM
same,GI50,TK-10 renal,10.1 µM
same,TGI,TK-10 renal,75 µM
same,GI50,UACC-62 melanoma,5.54 µM
same,TGI,UACC-62 melanoma,28.3 µM
same,GI50,T-47D breast,9.51 µM
same,TGI,T-47D breast,76.9 µM
same,GI50,MDA-MB-231 breast,13.1 µM
same,TGI,MDA-MB-231 breast,> 100 µM
same,GI50,ACHN renal,5.05 µM
same,TGI,ACHN renal,> 100 µM
same,GI50,PC-3 prostate,14.6 µM
same,TGI,PC-3 prostate,> 100 µM
same,GI50,RXF 393 renal,2.67 µM
same,TGI,RXF 393 renal,12.2 µM
same,GI50,SNB-75 CNS,3.69 µM
same,TGI,SNB-75 CNS,16.9 µM
